Where “and” joins values, the source holds several entries; their conditions need not be identical. Equal values may be shown once. Numbered stars: 1 amine (or outer) side, 2 acyl side, 3 side chain; on linkers, the order of the positions; unused ones are H or OH. Bridge positions count the residues as written; N and C are the ends. Square brackets hold non-standard residues; d marks the D form. Peptide text beside a SMILES is read from it. I, II: the chains in the order shown. ξ: configuration not given here. Phe(4-tBu) = CC(C)(C)c1ccc(C[C@H](N)C(=O)O)cc1; Diglycolyl = O=C(COCC(=O)[*:2])[*:1]; NMeR = CN[C@@H](CCCNC(=N)N)C(=O)O; β3hE = N[C@@H](CCC(=O)O)CC(=O)O; Thr(3ξ) = CC(O)[C@H](N)C(=O)O; X1 = O=C(c1ccccc1C[*:2])[*:1]; Pen = CC(C)(S)[C@H](N)C(=O)O
How the values were obtained:
[1] = molecular target: T1, α4β7 integrin on memory CD4+ T cells (Homo sapiens, UniProt P13612+P26010); experiment: Study 1 blood α4β7 receptor occupancy and receptor expression; assay type: in vivo; conditions: for Tmax for RO / Average RE (%) / REmax (%) / ROmax (%) / Tmax for RE / Average RO (%): Mean ± SD
T1 construct: the amount of α4β7 expression on the cell surface of circulating lymphocytes; endogenous in cells; host or cells: heparinized whole blood of healthy volunteers
Method: After staining is completed, the samples are treated with a red blood cell lysis and fixation buffer, washed and acquired on a flow cytometer. To quantify receptor occupancy on α4β7 expressing memory CD4 T cells, the […] fluorescence intensity (MFI) of Alexa647-labelled peptide within the vedolizumab+ memory CD4+ T cells was used. Receptor occupancy was calculated according to the following formula: [Percent RO]=(1−([Unblocked]−[Blocked])/([Baseline Unblocked]−[Baseline Blocked]))×100.
Expression of α4β7 is defined by MFI of vedolizumab within the memory CD4+ T cells from the unblocked samples. Receptor expression (RE) was calculated as percent change of MFI from baseline for the vedolizumab stain.

primary CD4+ T-cells = experiment: Flow cytometry phenotype of proliferated CD4+ T-cells (Th subsets, surface β7); assay type: cell-based, human
Method: PBMCs were purified from healthy human donors and enrichment of CD4+ T cells was performed. […] Phenotype, distribution of T-helper (Th) subsets and % RO analyses were conducted by flow cytometry of freshly stained live samples.

[2] = 28-day toxicology studies (NOEL); assay type: in vivo, rats and cynomolgus monkeys; conditions: standard allometric scaling and 10-fold safety margin
Method: The starting dose in the first in human single and multiple dose study was based on consideration of the no observed effect level (NOEL) from 28-day toxicology studies in rats and cynomolgus monkeys, and the receptor occupancy noted in cynomolgus monkeys. The NOEL determined in rats and monkeys translated to a human equivalent dose of approximately 145 mg using standard allometric scaling and a 10-fold safety margin. A starting dose of 100 mg was selected with initial stepwise escalations of approximately 3-fold.

α4β7 integrin = molecular target: T2, α4β7 integrin (Homo sapiens, UniProt P13612+P26010); experiment: MAdCAM1-mediated cytokine production by CD4+ T-cells (MSD/luminex multiplex); assay type: cell-based; conditions: IFNγ, IL-5, IL-6, IL-10, IL-13, GM-CSF, TNFα; three donors
T2 construct: endogenous in cells; host or cells: primary human CD4+ T cells enriched from PBMCs of healthy donors
Method: PBMCs were purified from three healthy human donors (Donors 7, 10, and 11), and enrichment of CD4+ T cells was performed.

[3] = 1000 mg Fasted once daily, Day 1
[4] = 1000 mg Fasted once daily, Day 14
[5] = single dose 1400 mg, listed as COMPOUND A
[6] = Anti-CD3 + MAdCAM1 + 1 uM Compound A

T1 sequence (P13612 34-1032): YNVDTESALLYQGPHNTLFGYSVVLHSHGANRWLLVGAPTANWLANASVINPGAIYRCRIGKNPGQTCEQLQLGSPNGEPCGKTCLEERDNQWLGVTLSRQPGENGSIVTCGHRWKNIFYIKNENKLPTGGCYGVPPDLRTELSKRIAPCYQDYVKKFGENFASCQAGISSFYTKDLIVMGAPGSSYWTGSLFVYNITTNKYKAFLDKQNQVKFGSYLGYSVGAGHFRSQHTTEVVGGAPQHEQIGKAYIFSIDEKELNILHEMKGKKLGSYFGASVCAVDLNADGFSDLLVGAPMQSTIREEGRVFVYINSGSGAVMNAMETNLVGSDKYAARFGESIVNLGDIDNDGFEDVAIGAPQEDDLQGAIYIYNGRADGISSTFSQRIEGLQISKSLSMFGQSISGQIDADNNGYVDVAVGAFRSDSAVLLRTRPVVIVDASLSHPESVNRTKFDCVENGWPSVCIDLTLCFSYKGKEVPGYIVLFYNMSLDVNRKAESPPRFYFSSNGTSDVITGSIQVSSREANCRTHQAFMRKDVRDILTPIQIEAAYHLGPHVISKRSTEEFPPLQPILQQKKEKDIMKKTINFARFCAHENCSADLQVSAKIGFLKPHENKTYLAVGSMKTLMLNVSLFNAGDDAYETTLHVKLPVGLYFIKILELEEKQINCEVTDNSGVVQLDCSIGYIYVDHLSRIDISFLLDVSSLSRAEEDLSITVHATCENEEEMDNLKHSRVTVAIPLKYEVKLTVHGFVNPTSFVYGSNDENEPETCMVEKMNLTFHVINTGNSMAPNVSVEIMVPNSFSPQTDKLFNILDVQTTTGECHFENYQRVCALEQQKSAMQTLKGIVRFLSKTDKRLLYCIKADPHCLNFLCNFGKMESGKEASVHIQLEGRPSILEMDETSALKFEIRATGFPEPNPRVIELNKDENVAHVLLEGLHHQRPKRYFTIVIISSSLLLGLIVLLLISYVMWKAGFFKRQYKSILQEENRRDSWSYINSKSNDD
T1 sequence (P26010 20-798): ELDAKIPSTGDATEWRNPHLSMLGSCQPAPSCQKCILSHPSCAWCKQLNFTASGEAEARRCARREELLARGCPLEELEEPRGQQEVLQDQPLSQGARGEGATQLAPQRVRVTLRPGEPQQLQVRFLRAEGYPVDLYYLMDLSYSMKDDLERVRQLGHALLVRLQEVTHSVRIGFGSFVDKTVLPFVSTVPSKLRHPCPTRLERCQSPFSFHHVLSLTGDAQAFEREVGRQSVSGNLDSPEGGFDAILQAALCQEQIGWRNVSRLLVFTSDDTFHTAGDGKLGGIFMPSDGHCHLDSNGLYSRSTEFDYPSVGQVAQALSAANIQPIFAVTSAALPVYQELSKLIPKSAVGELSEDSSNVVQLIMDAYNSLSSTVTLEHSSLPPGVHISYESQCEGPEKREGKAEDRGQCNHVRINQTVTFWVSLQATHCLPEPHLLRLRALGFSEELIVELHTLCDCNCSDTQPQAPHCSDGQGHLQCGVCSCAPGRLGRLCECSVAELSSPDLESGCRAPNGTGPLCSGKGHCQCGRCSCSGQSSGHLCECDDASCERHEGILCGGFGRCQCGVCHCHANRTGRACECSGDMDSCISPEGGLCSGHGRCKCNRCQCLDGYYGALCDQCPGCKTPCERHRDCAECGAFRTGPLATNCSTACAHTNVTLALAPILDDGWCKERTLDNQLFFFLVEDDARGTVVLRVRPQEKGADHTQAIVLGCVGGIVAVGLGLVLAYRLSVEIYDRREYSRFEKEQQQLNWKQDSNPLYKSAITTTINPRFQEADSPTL
T2 sequence (P13612 34-1032): as the sequence (P13612 34-1032) above
T2 sequence (P26010 20-798): as the sequence (P26010 20-798) above

CC(C)C[C@@H]1NC(=O)[C@H](C(C)O)NC(=O)[C@H](CC(=O)O)NC(=O)[C@H](CO)NC(=O)[C@H](CCCNC(=N)N)N(C)C(=O)c2ccccc2CSC(C)(C)[C@@H](C(=O)N[C@@H](Cc2ccc(C(C)(C)C)cc2)C(=O)N[C@@H](CCC(=O)O)CC(=O)N[C@H](CCCCNC(=O)COCC(=O)NCCCC[C@@H](NC(=O)C[C@H](CCC(=O)O)NC(=O)[C@H](Cc2ccc(C(C)(C)C)cc2)NC(=O)[C@H]2NC(=O)[C@H](CC(C)C)NC(=O)[C@H](C(C)O)NC(=O)[C@H](CC(=O)O)NC(=O)[C@H](CO)NC(=O)[C@H](CCCNC(=N)N)N(C)C(=O)c3ccccc3CSC2(C)C)C(=O)O)C(=O)O)NC1=O (stereo partly drawn) [Compound A, ((2-Benzyl)-(N-Me-R)-Ser-Asp-Thr-Leu-Pen-(Phe(4-tBlu))-(β-homo-Glu)-(D-Lys)-OH)2 (SEQ ID NO: 5) and linker-DIG diglycolic acid] (I: [NMeR]SD[Thr(3ξ)]L[Pen][Phe(4-tBu)][β3hE][dK]-OH / II: [NMeR]SD[Thr(3ξ)]L[Pen][Phe(4-tBu)][β3hE][dK]-OH; linker I:9-II:9 via Diglycolyl; linker I:N-I:6, II:N-II:6 via X1)
Tmax for RO ([1]; 900 mg QD, Day 1): 5.4 ± 3.9 h
Average RE (%) ([1]; 900 mg QD, Day 5): −44.6 ± 6.3%
REmax (%) ([1]; 900 mg QD, Day 5): −50.1 ± 5.3%
ROmax (%) ([1]; 900 mg QD, Day 5): 94.9% and 94.9 ± 1.97%
Tmax for RE ([1]; 900 mg QD, Day 5): 11 ± 3.9 h
Tmax for RO ([1]; 900 mg QD, Day 5): 3.3 ± 6.2 h
Average RO (%) ([1]; 900 mg QD, Day 5, 24-hour AUEC): 79.2% and 79.2 ± 8.7%
Average RE (%) [1, 3]: −33.9 ± 3.4%
Average RO (%) [1, 3]: 77.1 ± 3.7%
REmax (%) [1, 3]: −43.1 ± 4.0%
ROmax (%) [1, 3]: 91.3 ± 2.93%
Tmax for RE [1, 3]: 12.0 ± 0 h
Tmax for RO [1, 3]: 7.0 ± 4.1 h
ROmax (%) ([1]; 1000 mg Fasted once daily, Day 1, listed as COMPOUND A): 91.3%
Average RE (%) [1, 4]: −51.3 ± 3.1%
Average RO (%) [1, 4]: 81.5 ± 15.5%
REmax (%) [1, 4]: −57.3 ± 2.9%
ROmax (%) [1, 4]: 95.6 ± 0.97%
Tmax for RE [1, 4]: 4.0 ± 0 h
Tmax for RO [1, 4]: 4.0 ± 0 h
ROmax (%) ([1]; 1000 mg Fasted once daily, Day 14, listed as COMPOUND A): 95.6%
mean peak receptor occupancy ([1]; doses of 900 mg): greater than 90%
trough receptor occupancy ([1]; once-daily 100 mg): approximately 25.4%
trough receptor occupancy ([1]; once-daily 1000 mg): ~78.6%
receptor occupancy at trough ([1]; once-daily or twice-daily dosing): greater than 80%
Average RE (%) ([1]; single dose 100 mg): −21.6 ± 7.1%
Average RO (%) ([1]; single dose 100 mg): 38.9 ± 12.5%
ROmax (%) ([1]; single dose 100 mg): 61.8 ± 10.8%
Tmax for RE ([1]; single dose 100 mg): 11 ± 6.0 h
Tmax for RO ([1]; single dose 100 mg): 3.8 ± 2.2 h
REmax (%) ([1]; single dose 100 mg, change from baseline): −28.2 ± 7.97%
REmax (%) ([1]; single dose 100 mg, change from baseline, listed as COMPOUND A): −28.2%
ROmax (%) ([1]; single dose 100 mg, listed as COMPOUND A): 61.8%
Average RE (%) ([1]; single dose 300 mg): −32.4 ± 3.0%
Average RO (%) ([1]; single dose 300 mg): 64.3 ± 6.6%
REmax (%) ([1]; single dose 300 mg): −43.6 ± 3.69%
ROmax (%) ([1]; single dose 300 mg): 83.4 ± 7.92%
Tmax for RE ([1]; single dose 300 mg): 12 ± 0 h
Tmax for RO ([1]; single dose 300 mg): 4.6 ± 2.3 h
ROmax (%) ([1]; single dose 300 mg, listed as COMPOUND A): 83.4%
Average RE (%) ([1]; single dose 1000 mg): −36.3 ± 2.9%
Average RO (%) ([1]; single dose 1000 mg): 81.0 ± 3.5%
REmax (%) ([1]; single dose 1000 mg): −45.4 ± 3.70%
ROmax (%) ([1]; single dose 1000 mg): 93.6 ± 2.04%
Tmax for RE ([1]; single dose 1000 mg): 12 ± 0 h
Tmax for RO ([1]; single dose 1000 mg): 4.1 ± 1.9 h
Average RE (%) ([1]; single dose 1400 mg): −40.3 ± 6.9%
Average RO (%) ([1]; single dose 1400 mg): 86.0 ± 6.8%
REmax (%) ([1]; single dose 1400 mg): −49.0 ± 8.20%
ROmax (%) ([1]; single dose 1400 mg): 94.8 ± 3.55%
Tmax for RE ([1]; single dose 1400 mg): 12 ± 0 h
Tmax for RO ([1]; single dose 1400 mg): 4.6 ± 3.2 h
REmax (%) [1, 5]: −49.0%
ROmax (%) [1, 5]: 94.8%
Th1-IFNγ, CD4+ T-cells (primary CD4+ T-cells; [6]): 15%
Th2-IL-4, CD4+ T-cells (primary CD4+ T-cells; [6]): 0.7%
Th17-IL-17A, CD4+ T-cells (primary CD4+ T-cells; [6]): 0.6%
surface expression of β7 in undivided CD4+ T-cells (primary CD4+ T-cells; tested in 5 donors): lowered
human equivalent dose of the NOEL [2]: approximately 145 mg
inhibition of MAdCAM1-mediated cytokine production (α4β7 integrin): Concentration-dependent and full inhibition

— patent publication US20230063321A1, “Methods for Treating Inflammatory Bowel Diseases with alpha4beta7 Integrin Antagonists” (Protagonist Therapeutics, Inc., priority 2020, published 2023)
